Data reported in patent publication US20180057507A1, “INHIBITORS OF DUAL LEUCINE ZIPPER (DLK) KINASE FOR THE TREATMENT OF DISEASE” (Board of Regents, The University of Texas System, priority 2016, published 2018).

Columns and labels:
human DLK [1] = target: T1, human DLK (Homo sapiens, UniProt Q12852); assay: Phospho-cJun Cellular Assay; format: cell-based; set-up: expressed in transfected cells; conditions: HEK293 cells stably transfected with Dox-inducible human DLK; p-cJun (Ser63); 5 h compound incubation
T1 sequence (Q12852 1-859): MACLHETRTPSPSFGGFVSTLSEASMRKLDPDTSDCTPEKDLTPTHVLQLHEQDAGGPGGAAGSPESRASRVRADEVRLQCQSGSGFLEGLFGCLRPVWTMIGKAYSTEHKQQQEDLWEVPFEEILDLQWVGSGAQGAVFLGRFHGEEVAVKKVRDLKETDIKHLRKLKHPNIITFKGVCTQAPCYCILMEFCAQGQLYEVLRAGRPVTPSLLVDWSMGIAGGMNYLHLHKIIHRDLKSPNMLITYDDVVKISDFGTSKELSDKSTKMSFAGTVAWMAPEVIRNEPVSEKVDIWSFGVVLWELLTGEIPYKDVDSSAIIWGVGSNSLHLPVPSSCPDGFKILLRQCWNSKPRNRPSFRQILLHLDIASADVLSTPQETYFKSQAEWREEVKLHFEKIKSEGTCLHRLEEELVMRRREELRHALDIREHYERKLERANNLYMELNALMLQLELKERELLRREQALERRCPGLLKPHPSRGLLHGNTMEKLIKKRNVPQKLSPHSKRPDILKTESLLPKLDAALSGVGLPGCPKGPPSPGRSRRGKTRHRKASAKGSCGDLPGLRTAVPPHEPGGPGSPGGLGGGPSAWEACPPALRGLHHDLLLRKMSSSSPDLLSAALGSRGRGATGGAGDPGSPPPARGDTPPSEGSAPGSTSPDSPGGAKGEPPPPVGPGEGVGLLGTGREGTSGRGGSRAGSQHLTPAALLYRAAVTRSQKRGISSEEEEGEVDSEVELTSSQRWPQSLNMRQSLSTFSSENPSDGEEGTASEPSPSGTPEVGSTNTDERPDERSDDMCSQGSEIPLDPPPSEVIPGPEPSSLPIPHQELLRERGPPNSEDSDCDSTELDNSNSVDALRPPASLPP
Method in brief: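 HEK293 cells with doxycycline-induced human DLK (induced 20 h; uninduced cells as negative control) treated with compound for 5 h at 37 °C. Phospho-cJun (Ser63) measured in lysates with detection-antibody kit; IC50 from variable-slope dose-response fit.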

human DLK [2] = target: T1, human DLK; assay: DLK Kd Determinations (KINOMEscan KdELECT, DiscoveRx); set-up: full length of human DLK (amino acids 1-859); host or cells: transiently transfected HEK293 cells; unpurified extract; conditions: fusion protein of full length human DLK (amino acids 1-859) and NFkB DNA binding domain; qPCR readout; duplicate
Method in brief: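 Competition binding of full-length human DLK (aa 1-859)-NFkB DBD fusion, DNA-tagged, from HEK293 extracts against an immobilized ligand; 1 h at room temperature, 0.9% DMSO. Bead-bound kinase was quantified by qPCR. Kd came from an 11-point 3-fold series (top 30,000 nM), in duplicate, with Hill slope fixed at −1.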

Structure (SMILES)	IC50 (human DLK [1]) [nM]	Kd (human DLK [2]) [nM]
CC(C)c1nc(-c2cnc(N)c(OC(F)(F)F)c2)cn1[C@H]1C2CC(N3C[C@@H]4C[C@H]3CO4)C[C@@H]21 (stereo in doubt) [Example 134, 5-(1-((1S,5S)-3-((1S,4S)-2-oxa-5-azabicyclo[2.2.1]heptan-5-yl)bicyclo[3.1.0]hexan-6-yl)-2-isopropyl-1H-imidazol-4-yl)-3-(trifluoromethoxy)pyridin-2-amine]	1040	33
CC(C)c1nc(-c2cnc(N)c(C(F)(F)F)c2)cn1[C@H]1[C@@H]2CC(N3CCOC[C@@H]3C)C[C@@H]21 (stereo partly drawn) [Example 131, 5-(2-isopropyl-1-(3-((S)-3-methylmorpholino)bicyclo[3.1.0]hexan-6-yl)-1H-imidazol-4-yl)-3-(trifluoromethyl)pyridin-2-amine]	1390	34

The next molecules have a lower IC50 (human DLK [1]) than those just listed; values first:

IC50 (human DLK [1]) [nM]	Kd (human DLK [2]) [nM]	Structure (SMILES)
781	64	COCCN1C[C@@H]2[C@H](C1)[C@H]2n1cc(-c2cnc(N)c(C(F)(F)F)c2)nc1CC1CC1 [Example 78, 5-(2-(cyclopropylmethyl)-1-((1R,5S,6s)-3-(2-methoxyethyl)-3-azabicyclo[3.1.0]hexan-6-yl)-1H-imidazol-4-yl)-3-(trifluoromethyl)pyridin-2-amine]
761	28	Nc1ncc(-c2cn([C@H]3[C@@H]4CC(N5CCN(CCF)CC5)C[C@@H]43)c(C3CC3)n2)cc1OC(F)(F)F (single isomer, unassigned) [Example 154a, 5-(2-cyclopropyl-1-(3-(4-(2-fluoroethyl)piperazin-1-yl)bicyclo[3.1.0]hexan-6-yl)-1H-imidazol-4-yl)-3-(trifluoromethoxy)pyridin-2-amine]
748	40	Nc1ncc(-c2cn([C@H]3[C@@H]4CC(N5CCOCC5)C[C@@H]43)c(C3CC3)n2)cc1C(F)(F)F (single isomer, unassigned) [Example 128a, 5-(2-cyclopropyl-1-(3-morpholinobicyclo[3.1.0]hexan-6-yl)-1H-imidazol-4-yl)-3-(trifluoromethyl)pyridin-2-amine]
